Test results from ChEMBL document CHEMBL1250522 (Bioorg Med Chem, 2010).

How the values were obtained:
MCF7 = assay: Cytotoxicity against human MCF7 cells after 72 hrs by SRB assay; type: functional, cell-based; conditions: MCF7, 72 h
[1] = Cytotoxicity against human NCI/ADR cells after 72 hrs by SRB assay; conditions: NCI/ADR-RES
[2] = Cytotoxicity against human wild type LCC-6 cells after 72 hrs by SRB assay; conditions: LCC-6, 72 h
[3] = Cytotoxicity against human multidrug-resistant LCC-6 cells after 72 hrs by SRB assay; conditions: LCC-6, 72 h
A2780 = assay: Cytotoxicity against human A2780 cells after 72 hrs by SRB assay; type: functional, cell-based; conditions: A2780, 72 h
CFPAC-1 = assay: Cytotoxicity against human CFPAC-1 cells after 72 hrs by SRB assay; type: functional, cell-based; conditions: CFPAC-1, 72 h

Structure (SMILES) | IC50 (MCF7) [µM] | IC50 [1] [µM] | IC50 [2] [µM] | IC50 [3] [µM] | IC50 (A2780) [µM] | IC50 (CFPAC-1) [µM]
CC(=O)OCc1cccc2c1[C@H](OC(=O)c1ccccc1)[C@H]1C[C@H](OC(=O)[C@H](O)[C@@H](NC(=O)c3ccccc3)c3ccccc3)CN1C2=O | 39.6 | > 100 | 36.3 | > 100 | 7.8 | > 100
CC(=O)OCc1cccc2c1[C@H](OC(=O)c1ccccc1)[C@H]1C[C@H](OC(=O)[C@H](O)[C@@H](NC(=O)c3ccccc3)c3ccccc3)CN1C(=O)C2 | 8.31 | 41.5 | 4.93 | 16.8 | 3.81 | 6.16
O=C1CC/C=C\COc2ccccc2[C@H](NC(=O)c2ccccc2)[C@@H](O)C(=O)O[C@H]2C[C@@H]3[C@@H](OC(=O)c4ccccc4)c4c(cccc4C(=O)N3C2)CO1 | > 100 | > 100 | > 100 | > 100 | 14.8 | > 100
